Measurements as given in patent US20240165113A1, “METHODS OF TREATMENT FOR LEUKEMIA” (DNA SEQ 2, Inc., priority 2021, published 2024).
Like-named read-outs stand apart in the source and are kept apart here.

Target: T1, unphosphorylated ABL1(T315I)(229-499) (Homo sapiens, UniProt P00519, T315I)
T1 construct: The recombinant ABL1(T315I) (isoform 1a) residues 229-499 protein was designed with an N-terminal 10×His tag; made in house; host or cells: E. coli (co-expressed with YopH phosphatase and pGro7 chaperone)
T1 sequence (P00519 229-499 T315I): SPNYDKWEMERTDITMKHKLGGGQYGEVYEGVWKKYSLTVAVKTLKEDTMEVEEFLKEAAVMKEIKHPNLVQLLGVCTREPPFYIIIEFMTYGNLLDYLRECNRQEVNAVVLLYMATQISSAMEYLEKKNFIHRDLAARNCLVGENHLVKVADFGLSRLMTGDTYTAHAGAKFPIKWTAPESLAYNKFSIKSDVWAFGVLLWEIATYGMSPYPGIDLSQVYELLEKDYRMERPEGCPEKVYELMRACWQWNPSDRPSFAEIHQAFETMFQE
Test: SPR binding to unphosphorylated ABL1(T315I)(229-499)
Details: Ni-NTA capture of 10xHis-tag

Q: Which Kd (HBST buffer, read-out: Unphosphorylated ABL1(T315I)(229-499) in HBST buffer KD) does the source give for `Nc1nc(N)c(N=O)c(OCC2CCCCC2)n1` [A-0001, 6-Cyclohexylmethyloxy-5-nitroso-pyrimidine-2,4-diamine] here?
A: The Kd was 2 µM.

Q: What about the Kd (PBST buffer, read-out: Unphosphorylated ABL1(T315I)(229-499) in PBST buffer KD) of the same molecule?
A: The Kd was 5 µM.
